# In patent US20250236608A1, “EGFR INHIBITORS” (Blueprint Medicines Corporation, priority 2022, published 2025):
# Legend:
# [1] = biological target: EGFR (d746-750) (Homo sapiens (Human), UniProt P00533, DEL746-750); experiment: Biochemical EGFR inhibition assay, EGFR (d746-750); conditions: Caliper mobility shift; 1.0 mM ATP or ATP Km; read-out: Enz EGFR_Exon19-del746-750 IC50
# [2] = biological target: pEGFR (Tyr1068) in PC-9 cells (Ex19Del) (Homo sapiens (Human), UniProt P00533, DEL746-750); experiment: PC-9 pEGFR AlphaLISA assay; type: cell-based; conditions: 4 hours incubation, p-EGFR (Tyr1068) AlphaLISA, read-out: Ext pEGFR_PC-9 Ex19Del IC50
# Outline: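 Compounds are added in ten 4-fold dilutions to adherent cells grown in serum-containing (10% FBS) phenol-free DMEM and left for 4 hours at 37° C. Phosphorylated receptor in lysates is quantified by bead-based AlphaLISA. IC50 values derive from inhibition plotted against log dose.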
# [3] = biological target: EGFR L858R (Homo sapiens (Human), UniProt P00533, L858R); experiment: Biochemical EGFR inhibition assay, EGFR L858R; conditions: Caliper mobility shift; 1.0 mM ATP or ATP Km; read-out: Enz EGFR_L858R IC50
# Chain of EGFR L858R (P00533 25-1210 L858R): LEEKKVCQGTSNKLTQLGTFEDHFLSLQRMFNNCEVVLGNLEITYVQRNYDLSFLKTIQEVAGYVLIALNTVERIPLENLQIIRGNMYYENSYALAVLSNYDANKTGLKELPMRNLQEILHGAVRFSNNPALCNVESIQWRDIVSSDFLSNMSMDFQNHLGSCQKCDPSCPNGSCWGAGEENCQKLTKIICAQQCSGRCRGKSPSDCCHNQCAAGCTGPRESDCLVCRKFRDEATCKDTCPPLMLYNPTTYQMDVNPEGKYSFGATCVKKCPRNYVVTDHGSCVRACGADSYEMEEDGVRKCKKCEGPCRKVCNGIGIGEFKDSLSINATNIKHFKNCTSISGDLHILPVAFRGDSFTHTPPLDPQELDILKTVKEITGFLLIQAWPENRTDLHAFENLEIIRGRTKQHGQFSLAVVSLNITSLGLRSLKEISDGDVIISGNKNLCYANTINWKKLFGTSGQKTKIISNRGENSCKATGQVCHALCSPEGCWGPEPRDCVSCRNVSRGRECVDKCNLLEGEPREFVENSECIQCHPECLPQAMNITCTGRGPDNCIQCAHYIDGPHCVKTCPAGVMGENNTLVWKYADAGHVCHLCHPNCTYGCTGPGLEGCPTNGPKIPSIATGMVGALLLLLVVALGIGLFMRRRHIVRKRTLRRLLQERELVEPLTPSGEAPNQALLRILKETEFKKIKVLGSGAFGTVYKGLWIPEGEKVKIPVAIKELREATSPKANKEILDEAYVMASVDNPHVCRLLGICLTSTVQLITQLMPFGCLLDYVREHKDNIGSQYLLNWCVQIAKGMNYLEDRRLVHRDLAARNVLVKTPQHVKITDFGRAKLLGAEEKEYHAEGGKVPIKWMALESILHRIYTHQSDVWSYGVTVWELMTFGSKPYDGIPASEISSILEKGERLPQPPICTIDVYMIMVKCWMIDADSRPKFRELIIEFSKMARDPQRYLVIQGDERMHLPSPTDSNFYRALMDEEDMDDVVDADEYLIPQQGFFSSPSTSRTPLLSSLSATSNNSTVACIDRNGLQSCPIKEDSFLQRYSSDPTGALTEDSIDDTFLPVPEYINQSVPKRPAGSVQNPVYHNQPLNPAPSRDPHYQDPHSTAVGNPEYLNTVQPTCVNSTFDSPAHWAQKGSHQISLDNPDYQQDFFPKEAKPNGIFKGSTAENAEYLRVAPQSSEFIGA
# Chain of EGFR (d746-750) (P00533 other isoform, or with tags, fused parts or gaps del 1-694/del 746-750 limits assumed): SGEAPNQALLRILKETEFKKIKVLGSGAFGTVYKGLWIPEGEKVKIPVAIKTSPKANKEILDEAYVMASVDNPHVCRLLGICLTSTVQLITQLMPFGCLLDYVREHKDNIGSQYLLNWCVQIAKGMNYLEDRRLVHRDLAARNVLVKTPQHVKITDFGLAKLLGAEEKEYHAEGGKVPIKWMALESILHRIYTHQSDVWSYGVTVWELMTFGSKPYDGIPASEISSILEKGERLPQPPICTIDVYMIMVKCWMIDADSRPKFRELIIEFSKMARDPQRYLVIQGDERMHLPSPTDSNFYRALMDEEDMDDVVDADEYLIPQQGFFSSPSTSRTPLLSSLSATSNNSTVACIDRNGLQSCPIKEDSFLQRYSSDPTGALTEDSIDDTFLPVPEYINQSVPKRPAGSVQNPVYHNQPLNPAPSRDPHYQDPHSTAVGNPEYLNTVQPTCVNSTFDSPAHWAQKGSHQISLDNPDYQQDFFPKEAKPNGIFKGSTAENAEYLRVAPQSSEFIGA
# Chain of pEGFR (Tyr1068) in PC-9 cells (Ex19Del) (P00533 other isoform, or with tags, fused parts or gaps del 746-750): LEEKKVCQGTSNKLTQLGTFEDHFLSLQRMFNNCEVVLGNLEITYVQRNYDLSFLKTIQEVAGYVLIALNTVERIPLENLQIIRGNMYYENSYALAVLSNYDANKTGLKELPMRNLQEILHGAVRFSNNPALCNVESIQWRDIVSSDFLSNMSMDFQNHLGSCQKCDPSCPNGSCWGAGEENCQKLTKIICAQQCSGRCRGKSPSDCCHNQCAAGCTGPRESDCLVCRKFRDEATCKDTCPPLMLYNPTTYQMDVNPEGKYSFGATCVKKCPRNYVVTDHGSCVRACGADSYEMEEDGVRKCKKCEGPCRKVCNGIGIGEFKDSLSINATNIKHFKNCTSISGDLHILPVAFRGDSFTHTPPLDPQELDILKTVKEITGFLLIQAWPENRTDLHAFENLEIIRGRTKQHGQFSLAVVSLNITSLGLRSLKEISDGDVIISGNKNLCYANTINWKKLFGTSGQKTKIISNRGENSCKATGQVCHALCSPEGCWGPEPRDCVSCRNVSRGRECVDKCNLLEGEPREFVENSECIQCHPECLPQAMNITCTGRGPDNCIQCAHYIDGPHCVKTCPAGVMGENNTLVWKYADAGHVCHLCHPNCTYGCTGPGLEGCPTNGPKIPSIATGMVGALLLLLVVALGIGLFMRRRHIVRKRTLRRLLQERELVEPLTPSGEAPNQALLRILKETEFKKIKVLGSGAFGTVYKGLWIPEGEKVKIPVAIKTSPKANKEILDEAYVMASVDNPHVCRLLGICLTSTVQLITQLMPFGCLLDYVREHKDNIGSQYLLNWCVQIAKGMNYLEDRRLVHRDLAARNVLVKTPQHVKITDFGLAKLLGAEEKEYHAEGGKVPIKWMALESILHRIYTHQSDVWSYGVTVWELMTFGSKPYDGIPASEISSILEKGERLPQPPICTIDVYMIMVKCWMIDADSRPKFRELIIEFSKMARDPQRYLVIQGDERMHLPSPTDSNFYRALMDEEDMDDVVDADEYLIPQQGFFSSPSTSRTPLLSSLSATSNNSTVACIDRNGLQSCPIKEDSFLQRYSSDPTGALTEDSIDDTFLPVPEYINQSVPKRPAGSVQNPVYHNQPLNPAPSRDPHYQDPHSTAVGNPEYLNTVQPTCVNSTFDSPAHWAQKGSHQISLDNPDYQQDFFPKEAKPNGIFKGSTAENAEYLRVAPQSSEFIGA
IC50 [1] [nM],IC50 [2] [nM],IC50 [3] [nM],Compound
0.9,0.8,1.9,"COc1cc2ncnc(-c3cn(CC(F)F)nc3-c3ccccc3)c2cc1OCCCN1CCOCC1 [Example 23, 4-(3-((4-(1-(2,2-difluoroethyl)-3-phenyl-1H-pyrazol-4-yl)-7-methoxyquinazolin-6-yl)oxy)propyl)morpholine]"
1.2,2.3,53,"CCOc1cc2ncnc(-c3cn(C)nc3-c3ccccc3F)c2nc1NC(=O)[C@]12C[C@H]1CN(C)C2 (single isomer, unassigned) [Example 401, (1R,5R)—N-(7-ethoxy-4-(3-(2-fluorophenyl)-1-methyl-1H-pyrazol-4-yl)pyrido[3,2-d]pyrimidin-6-yl)-3-methyl-3-azabicyclo[3.1.0]hexane-1-carboxamide or (1S,5S)—N-(7-ethoxy-4-(3-(2-fluorophenyl)-1-methyl-1H-pyrazol-4-yl)pyrido[3,2-d]pyrimidin-6-yl)-3-methyl-3-azabicyclo[3.1.0]hexane-1-carboxamide]"
1.8,6.4,3.8,"COc1cc2ncnc(-c3cn(C)nc3-c3ccccc3)c2cc1NC(=O)c1ccncc1C [Example 191, N-(7-methoxy-4-(1-methyl-3-phenyl-1H-pyrazol-4-yl)quinazolin-6-yl)-3-methylisonicotinamide]"
2.1,13.7,6.1,"COc1cc2ncnc(-c3cn(C)nc3-c3ccccc3)c2cc1OC(=O)N1[C@@H](C)COC[C@@H]1C [Example 64, 7-methoxy-4-(1-methyl-3-phenyl-1H-pyrazol-4-yl)quinazolin-6-yl (3S,5S)-3,5-dimethylmorpholine-4-carboxylate]"
1.8,7.9,3.5,"COc1cc2ncnc(-c3cn(C)nc3-c3ccccc3)c2cc1NC(=O)N1CCOC(C)(C)C1 [Example 184, N-[7-methoxy-4-(1-methyl-3-phenyl-1H-pyrazol-4-yl)quinazolin-6-yl]-2,2-dimethylmorpholine-4-carboxamide]"
1.7,2.5,2.4,"COc1cc2ncnc(-c3cn(C)nc3-c3ccccc3)c2cc1NC(=O)C[C@H]1CCCO1 [Example 280, (R)—N-(7-methoxy-4-(1-methyl-3-phenyl-1H-pyrazol-4-yl)quinazolin-6-yl)-2-(tetrahydrofuran-2-yl) acetamide]"
0.4,2.7,1.3,"CCOc1cc2ncnc(-c3cn(C)nc3-c3ccc(F)cc3)c2nc1NC(=O)[C@]12C[C@H]1CN(C)C2 (single isomer, unassigned) [Example 376, (1R,5R)—N-(7-ethoxy-4-(3-(4-fluorophenyl)-1-methyl-1H-pyrazol-4-yl)pyrido[3,2-d]pyrimidin-6-yl)-3-methyl-3-azabicyclo[3.1.0]hexane-1-carboxamide or (1S,5S)—N-(7-ethoxy-4-(3-(4-fluorophenyl)-1-methyl-1H-pyrazol-4-yl)pyrido[3,2-d]pyrimidin-6-yl)-3-methyl-3-azabicyclo[3.1.0]hexane-1-carboxamide]"
0.6,3.4,1.9,"C[C@H](O)c1cc2c(-c3cn(CC(F)F)nc3-c3ccccc3)ncnc2cc1O[C@H]1CCOC1 (single isomer, unassigned) [Example 117, (S)-1-(4-(1-(2,2-difluoroethyl)-3-phenyl-1H-pyrazol-4-yl)-7-(((S)-tetrahydrofuran-3-yl)oxy)quinazolin-6-yl)ethan-1-ol or (R)-1-(4-(1-(2,2-difluoroethyl)-3-phenyl-1H-pyrazol-4-yl)-7-(((S)-tetrahydrofuran-3-yl)oxy)quinazolin-6-yl)ethan-1-ol]"
1.9,2.7,2.3,"CCn1cc([C@@H](C)Oc2nc3c(-c4cn(C)nc4-c4ccccc4)ncnc3cc2OC)nn1 [Example 35, (R)-6-(1-(1-ethyl-1H-1,2,3-triazol-4-yl)ethoxy)-7-methoxy-4-(1-methyl-3-phenyl-1H-pyrazol-4-yl)pyrido[3,2-d]pyrimidine]"
1.1,4.2,2,"CCOc1cc2ncnc(-c3cn(C)nc3-c3ccccc3)c2cc1CO [Example 99, (7-ethoxy-4-(1-methyl-3-phenyl-1H-pyrazol-4-yl)quinazolin-6-yl)methanol]"
8.2,26,12,"COc1cc2ncnc(-c3cn(C)nc3-c3ccccc3)c2cc1NC(=O)[C@@H](C)CN(C)C (single isomer, unassigned) [Example 238, (S)-3-(dimethylamino)-N-(7-methoxy-4-(1-methyl-3-phenyl-1H-pyrazol-4-yl)quinazolin-6-yl)-2-methylpropanamide or (R)-3-(dimethylamino)-N-(7-methoxy-4-(1-methyl-3-phenyl-1H-pyrazol-4-yl)quinazolin-6-yl)-2-methylpropanamide]"
1.9,7.8,4.7,"COc1cc2ncnc(-c3cn(C)nc3-c3ccccc3)c2cc1NC(=O)C1(C)COC1 [Example 345, N-(7-methoxy-4-(1-methyl-3-phenyl-1H-pyrazol-4-yl)quinazolin-6-yl)-3-methyloxetane-3-carboxamide]"
0.9,0.8,1.4,"CCn1cc(-c2ncnc3cc(OC)c(NC(=O)C4(C(F)(F)F)CC4)nc23)c(-c2ccccc2)n1 [Example 371, N-(4-(1-ethyl-3-phenyl-1H-pyrazol-4-yl)-7-methoxypyrido[3,2-d]pyrimidin-6-yl)-1-(trifluoromethyl)cyclopropane-1-carboxamide]"
0.8,1,1.3,"COc1cc2ncnc(-c3cn(CC(F)F)nc3-c3ccccc3)c2cc1NC(=O)c1cnsc1 [Example 271, N-(4-(1-(2,2-difluoroethyl)-3-phenyl-1H-pyrazol-4-yl)-7-methoxyquinazolin-6-yl)isothiazole-4-carboxamide]"

Compound,IC50 [1] [nM],IC50 [2] [nM],IC50 [3] [nM]
"COc1cc2ncnc(-c3cn(C)nc3-c3ccccc3)c2cc1OC(=O)N1CCN(C)C[C@H]1C (single isomer, unassigned) [Example 58, 7-methoxy-4-(1-methyl-3-phenyl-1H-pyrazol-4-yl)quinazolin-6-yl (R)-2,4-dimethylpiperazine-1-carboxylate or 7-methoxy-4-(1-methyl-3-phenyl-1H-pyrazol-4-yl)quinazolin-6-yl(S)-2,4-dimethylpiperazine-1-carboxylate]",2.5,5.1,4.5
"COc1cc2ncnc(-c3cn(C)nc3-c3ccccc3)c2cc1OC(=O)N1C(C)CN(C)C[C@H]1C (stereo in doubt) [Example 90, 7-methoxy-4-(1-methyl-3-phenyl-1H-pyrazol-4-yl)quinazolin-6-yl (2R,6R)-2,4,6-trimethylpiperazine-1-carboxylate]",8.5,31.6,14
"COc1cc2ncnc(-c3cn(C)nc3-c3ccccc3)c2cc1OC(=O)N1CCN(C)[C@H]2C[C@H]21 (racemic) [Example 82, Cis-rac-7-methoxy-4-(1-methyl-3-phenyl-1H-pyrazol-4-yl)quinazolin-6-yl (1R,6S)-5-methyl-2,5-diazabicyclo[4.1.0]heptane-2-carboxylate]",3.3,3.9,5.3
